Entries after “also recorded” stand apart in the source; their conditions may differ.
Assays:
[1] = previous studies; cited from earlier work
E. coli ATCC 25922 [2] = assay: Fluorescence microscopy of fixed cells stained with DAPI and FM 4-64fx; type: cell-based; settings: RC-Obi 0.1 mM, RO-Obi 0.5 mM, 2 hours at 37° C.
Protocol: The E. coli cells were also subjected to fluorescence microscopy after treatment with RC-Obi or RO-Obi. E. coli ATCC 29522 cells were grown in LB media for 8 hours at 37° C. then plated on agar media and incubated overnight at 37° C. A single colony was transferred into test tube with fresh LB media and allowed to grow to 0.3 OD600 at 37° C. Cells were diluted by a factor of 10, allowed to grow to OD600 0.3 again. Aliquots of the cell suspension (2 mL each) were treated with RC-Obi (0.1 mM), RO-Obi (0.5 mM), ampicillin (50 μg/mL), or buffer control and incubated for 2 hours at 37° C. Culture aliquots of 250 μL were then used for staining and fluorescence microscopy. Cell membranes and DNA were labeled with the fixable dyes FM 4-64fx and DAPI, respectively, according to the manufacturer's instructions. Cells were fixed with 2.6% paraformaldehyde+0.008% glutaraldehyde as previously described. Fixed cells were imaged on 1% agarose pads with an Olympus BX51 microscope equipped with a CCD OrcaERG camera (Hamamatsu Photonics, Bridgewater, N.J.), an Olympus Plan N 100X/1.25 Oil Ph3 objective, and an X-Cite 120 LED light source (Lumen Dynamics). Nikon elements were used for image capture using the DAPI and rhodamine filter sets from Chroma. Images were processed using NIS—Elements Basic Research Microscope Imaging Software (Nikon Corp.).

Streptococcus pneumonia = settings: reported; cited from earlier work
[3] = reported; cited from earlier work
[4] = test system: 6× passaged E. coli ATCC 25922; assay: Growth curves of 6× passaged E. coli in the presence of RC-Obi; type: cell-based; settings: 6 overnight cycles in LB broth with 0.25 mM RC-Obi, then varying concentrations in LB broth
Protocol: (§1) E. coli ATCC 25922 was passaged in LB broth through 6 overnight cycles in the presence of 0.25 mM RC-Obi β-lactone with fresh doses of antibiotic added every 18 hours for 6 days straight.

E. coli X580 = assay: Growth curves of β-lactam hypersensitive E. coli X580; type: cell-based; settings: varying concentrations of RC-Obi
Protocol: (§2) Bacterial strains (E. coli 29522 and E. coli X580) were grown from frozen glycerol stocks in LB media overnight at 37° C. with shaking. These starter cultures were used to inoculate fresh LB broth or M9 minimal media broth at an OD600 of 0.3. Each well of a 96-well plate was filled with 100 μL of sterile media (LB or M9). A sterile solution of RC-Obi or RO-Obi in LB or M9 media was added to the first well of each row and was serially diluted two-fold down the entire row creating a compound concentration gradient of 0.3-0.0025 mM.
(§3) Each well of the plate was then filled with 100 μL of the OD600 0.3 bacterial cell suspensions to give a final volume of 200 μL per well. The plates were incubated at 37° C. and the OD600 of each well was measured every 30 minutes over 24 hours. The plate was shaken briefly prior to each measurement to ensure an even cell suspension. All growth curves were generated in triplicate.
as §1

E. coli ATCC 25922 [5] = assay: Antibiotic susceptibility testing, growth curves by OD600; type: cell-based; settings: for effect on E. coli growth (OD600): 150 μM, M9 minimal media, compared to buffer control
Protocol: as §2, §3

Row | Compound | hydrolysis in aqueous solutions [1] | cell clumping phenotype (E. coli ATCC 25922 [2]) | efficacy in murine septicemia model (Streptococcus pneumonia) | antibacterial activity [3] | susceptibility after passaging [4] | sensitivity compared to E. coli ATCC 29522 (E. coli X580) | effect on E. coli growth (OD600) (E. coli ATCC 25922 [5]) | time until growth recovered to normal levels (E. coli ATCC 25922 [5]; after treatment with RC-Obi) | effect on E. coli growth (OD600) at various concentrations (E. coli ATCC 25922 [5]; various concentrations of RC-Obi, or buffer control)
1 | O=C(N[C@@H]1C(=O)O[C@@H]1Cc1ccc([N+](=O)[O-])cc1)c1cccc(O)c1O [RC-Obi, obafluorin] | hydrolyzes rapidly | induced a cell clumping phenotype; also recorded: severe cell clumping | demonstrated efficacy | broad-spectrum antibacterial activity | still susceptible to the antibiotic | enhanced sensitivity and slower growth recovery | inhibited the growth of E. coli; also recorded: halted E. coli growth | ~10 h | inhibited the growth of E. coli in a dose-dependent manner
2 | O=C(NC(C(=O)O)C(O)Cc1ccc([N+](=O)[O-])cc1)c1cccc(O)c1O (centres unmarked) [RO-Obi] | – | moderate cell clumping | – | – | – | – | minimal effect on E. coli growth | – | –

Reference: US10655153B2, “Chemoenzymatic synthesis of peptide beta-lactones and beta-hydroxy acids” (Washington University, priority 2017, dated 2020)
